In ChEMBL document CHEMBL4130413, “1-Aryl-1H- and 2-aryl-2H-1,2,3-triazole derivatives blockade P2X7 receptor in vitro and inflammatory response in vivo” (Eur J Med Chem, 2017):
pIC50: −log10 of the molar value. Calls of active or inactive are those of the source. The calls are words filed in the database; no cut-off is given here.

Experiments:
Mus musculus [1] = assay: Anti-inflammatory activity in Swiss mouse assessed as inhibition of LPS-induced nitric oxide production in pleural washes at 100 ng/kg, ip pretreated for 1 hr followed by LPS stimulation measured after 24 hrs by Lowry/Griess analysis; format: functional, organism-based
Mus musculus [2] = assay: Anti-inflammatory activity in Swiss mouse assessed as inhibition of LPS-induced nitric oxide production in pleural washes at 100 mg/kg, ip pretreated for 1 hr followed by LPS stimulation and measured after 24 hrs by Lowry/Griess analysis; format: functional, organism-based
Mus musculus [3] = assay: Anti-inflammatory activity in Swiss mouse assessed as inhibition of LPS-induced protein extravasation in thoracic cavity at 100 mg/kg, ip pretreated for 1 hr followed by LPS stimulation and measured after 24 hrs; format: functional, organism-based
Mus musculus [4] = assay: Anti-inflammatory activity in ip dosed Swiss Webster mouse assessed as inhibition of ATP-induced paw edema pretreated for 60 mins followed by ATP administration and measured after 30 mins; format: functional
P2X purinoceptor 7 [5] = target: T1, P2X purinoceptor 7 (Mus musculus, UniProt Q9Z1M0); assay: Antagonist activity at P2X7 receptor in Swiss mouse peritoneal macrophages assessed as inhibition of BzATP-induced current at holding potential of -60 mV preincubated for 5 mins followed by BzATP addition measured after 5 mins by Whole cell patch-clamp analysis
T1 sequence (Q9Z1M0 whole entry): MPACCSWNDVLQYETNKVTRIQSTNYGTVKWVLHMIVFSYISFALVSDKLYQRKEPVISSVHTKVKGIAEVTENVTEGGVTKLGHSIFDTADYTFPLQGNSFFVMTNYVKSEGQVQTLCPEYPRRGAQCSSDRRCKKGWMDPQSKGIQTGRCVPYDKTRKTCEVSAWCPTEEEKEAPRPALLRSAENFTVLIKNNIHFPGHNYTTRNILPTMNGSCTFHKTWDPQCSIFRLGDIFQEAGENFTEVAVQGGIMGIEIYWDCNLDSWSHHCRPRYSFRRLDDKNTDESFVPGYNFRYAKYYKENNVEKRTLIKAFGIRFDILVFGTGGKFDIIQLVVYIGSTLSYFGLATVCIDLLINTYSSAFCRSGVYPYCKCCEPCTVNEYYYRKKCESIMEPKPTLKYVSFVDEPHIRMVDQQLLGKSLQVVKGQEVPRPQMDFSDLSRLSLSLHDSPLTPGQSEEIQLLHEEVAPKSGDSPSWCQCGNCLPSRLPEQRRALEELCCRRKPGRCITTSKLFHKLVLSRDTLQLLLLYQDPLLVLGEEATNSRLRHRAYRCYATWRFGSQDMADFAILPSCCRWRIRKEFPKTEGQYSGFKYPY

[6] = target: T2, P2X purinoceptor 7 (Mus musculus) (UniProt Q9Z1M0); assay: Antagonist activity at mouse P2X7 receptor expressed in HEK293 cells assessed as inhibition of ATP-induced ethidium iodide uptake at 10 uM preincubated for 10 mins followed by ATP addition measured after 20 mins by FLIPR assay relative to 1 mM ATP; format: cell-based
T2 sequence (whole entry): T1 sequence (Q9Z1M0 whole entry)

[7] = Intrinsic clearance in mouse liver microsomes assessed per mg protein at 1 uM measured up to 45 mins; format: ADME, microsome; conditions: read-out: CLH
P2X purinoceptor 7 [8] = target: T3, P2X purinoceptor 7 (Homo sapiens, UniProt Q99572); assay: Antagonist activity at human P2X7 receptor in PMA-differentiated THP-1 macrophages assessed as inhibition of ATP-induced IL-1beta release preincubated for 30 mins followed by ATP addition measured after 30 mins by ELISA
T3 sequence (Q99572 whole entry): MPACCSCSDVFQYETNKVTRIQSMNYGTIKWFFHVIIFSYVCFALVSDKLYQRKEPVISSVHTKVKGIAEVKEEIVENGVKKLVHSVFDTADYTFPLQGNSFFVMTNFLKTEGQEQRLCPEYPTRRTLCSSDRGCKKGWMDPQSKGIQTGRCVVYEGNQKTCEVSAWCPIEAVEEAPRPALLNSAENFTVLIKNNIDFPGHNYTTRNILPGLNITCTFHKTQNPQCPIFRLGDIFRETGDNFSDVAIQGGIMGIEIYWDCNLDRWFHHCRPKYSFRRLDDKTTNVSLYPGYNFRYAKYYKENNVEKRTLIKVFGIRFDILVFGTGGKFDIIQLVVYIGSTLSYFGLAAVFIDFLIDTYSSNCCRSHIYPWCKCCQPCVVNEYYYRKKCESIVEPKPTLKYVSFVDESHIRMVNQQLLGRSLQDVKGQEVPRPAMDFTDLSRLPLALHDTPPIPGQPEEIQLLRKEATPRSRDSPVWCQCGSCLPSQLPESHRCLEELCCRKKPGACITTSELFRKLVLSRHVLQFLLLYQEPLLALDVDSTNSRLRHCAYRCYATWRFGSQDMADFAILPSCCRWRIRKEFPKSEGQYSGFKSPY

[9] = Cytotoxicity against Swiss mouse peritoneal macrophages after 24 hrs by LDH-release assay; format: cell-based, Peritoneal macrophage
[10] = target: P2X purinoceptor 7 (Mus musculus) (UniProt Q9Z1M0); assay: Antagonist activity at P2X7 receptor in Swiss mouse peritoneal macrophages assessed as inhibition of ATP-induced propidium iodide uptake at 10 uM after 30 mins by FLIPR assay relative to 1 mM ATP
Mus musculus [11] = assay: Anti-inflammatory activity in Swiss mouse assessed as inhibition of LPS-induced pleural accumulation in eosinophils at 1 to 100 ng/kg, ip pretreated for 1 hr followed by LPS stimulation and measured after 24 hrs by May-Grunwald-Giemsa staining-based Neubauer chamber based optical microscopy; format: functional, organism-based
P2X purinoceptor 7 [12] = target: T1, P2X purinoceptor 7; assay: Antagonist activity at P2X7 receptor in Swiss mouse peritoneal macrophages assessed as inhibition of BzATP-induced ethidium iodide uptake after 30 mins by spectrofluorometric analysis
P2X purinoceptor 7 [13] = target: T1, P2X purinoceptor 7; assay: Antagonist activity at P2X7 receptor in LPS/IFNc-differentiated Swiss mouse peritoneal macrophages assessed as inhibition of ATP-induced IL-1beta release preincubated for 30 mins followed by LPS stimulation for 4 hrs using cells treated with ATP for 30 mins by ELISA
[14] = target: T4, P2X purinoceptor 7 (Homo sapiens) (UniProt Q99572); assay: (§1) Antagonist activity at P2X7 receptor in LPS/IFNc-differentiated human THP-1 cells assessed as inhibition of ATP-induced IL-1beta release preincubated for 30 mins followed by LPS stimulation for 4 hrs using cells treated with ATP for 30 mins by ELISA; format: cell-based
T4 sequence (whole entry): T3 sequence (Q99572 whole entry)

P2X purinoceptor 7 [15] = target: T3, P2X purinoceptor 7; assay: as §1; format: cell-based

pIC50 (P2X purinoceptor 7 [5])	inhibition [6]	microsomal CLint at 1 µM [7] [µL/min/mg]	pIC50 (P2X purinoceptor 7 [8])	inhibition [10] [%]	pIC50 (P2X purinoceptor 7 [12])	pIC50 (P2X purinoceptor 7 [13])	Activity [14]	pIC50 (P2X purinoceptor 7 [15])	SMILES	Activity (Mus musculus [1])	Activity (Mus musculus [2])	Activity (Mus musculus [3])	ID50 (Mus musculus [4]) [µg/kg]	CC50 at 24 h [9] [µM]	Activity (Mus musculus [11])
–	–	–	–	–	–	–	–	–	O=C(O)Cc1ccccc1Nc1c(Cl)cccc1Cl [DICLOFENAC]	inactive	inactive	inactive	–	–	–
7.39	Active	22.2	7.17	84.7	7.23	7.04	Dose-dependent effect	7.17	CCOCc1cn(-c2ccc(Cl)cc2)nn1	–	–	–	0.07984	4.03	inactive
